Patent US10849893B2 (Athenex HK Innovative Limited, priority 2018, dated 2020)
Where “and” joins values, the source holds several entries; their conditions need not be identical. Equal values may be shown once. Read-outs that look alike come from different tables or passages of the source.

Key:
[1] = oral 225 mg/m^2 with Compound A; individual subjects
Description: (§1) A 2-part study was conducted in subjects with solid tumors (“Study 2”). […] The dose levels increased to 75 mg/m^2, 150 mg/m^2, 225 mg/m^2, 300 mg/m^2, 375 mg/m^2, and 400 mg/m^2. In the second part of this study, half of the group starting at a selected dose from stage 1, was given over two consecutive days every three weeks. A total of 15 (n=40) subjects enrolled in this study.
(§2) All subject PK data within the dataset were analyzed using Phoenix 8.0. […] Individual time points for the terminal slope were automatically selected by the software, and linear up—log down interpolation calculation method was used for the analysis. Individual BLQ samples were set to 0.00 ng/ml for noncompartmental analysis unless the PK sample occurred between two PK samples above the limit of quantification, in which case the PK sample was set to missing. For the calculation of summary statistics and mean concentration figures, all BLQ samples were set to 0.00 ng/ml.

[2] = parameters: Dose Normalized AUC: unit not given beside the values; settings: cited from earlier work
[3] = 75 mg/m^2 over 28 days, monotherapy schedule for mHRPC; cited from earlier work
clinical = settings: human, po
Description: as §1, §2

[4] = IV 20 mg/m^2, infusion 1 h, n = 1
[5] = IV 20 mg/m^2, infusion 24 h, n = 1
[6] = IV 30 mg/m^2, infusion 1.58 (0.80) h, n = 2
[7] = IV 40 mg/m^2, infusion 1 h, n = 1
[8] = IV 40 mg/m^2, infusion 24 h, n = 3
[9] = IV 55 mg/m^2, infusion 1.68 (0.75) h, n = 3
[10] = IV 55 mg/m^2, infusion 24 h, n = 4
[11] = IV 70 mg/m^2, infusion 1.37 (0.53) h, n = 2
[12] = IV 70 mg/m^2, infusion 24 h, n = 3
[13] = IV 85 mg/m^2, infusion 1.61 (0.81) h, n = 6
[14] = IV 90 mg/m^2, infusion 24 h, n = 5
[15] = IV 100 mg/m^2, infusion 2.03 (0.09) h, n = 4
[16] = IV 115 mg/m^2, infusion 1.84 (0.28) h, n = 4
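Throughout, for AUC % Extrapobs: noncompartmental pharmacokinetic analysis in subjects with solid tumors, using linear-up log-down interpolation, with terminal slope time points picked automatically by the software.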
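Throughout, for AUCINF—obs: noncompartmental pharmacokinetic analysis in subjects with solid tumors, using linear-up log-down interpolation, with terminal slope time points picked automatically by the software.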
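Throughout, for Tmax: noncompartmental pharmacokinetic analysis in subjects with solid tumors, using linear-up log-down interpolation, with terminal slope time points picked automatically by the software.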

Structure (SMILES): CC(=O)O[C@@]12CO[C@@H]1C[C@H](O)[C@@]1(C)C(=O)[C@H](O)C3=C(C)[C@@H](OC(=O)[C@H](O)[C@@H](NC(=O)OC(C)(C)C)c4ccccc4)C[C@@](O)([C@@H](OC(=O)c4ccccc4)[C@H]21)C3(C)C [docetaxel, (2aR,4S,4aS,6R,9S,11S,12S,12aR,12b S)-12b-acetoxy-9-(((2R,3S)-3-((tert-butoxycarbonyl)amino)-2-hydroxy-3-phenylpropanoyl)oxy)-4,6,11-trihydroxy-4a,8,13,13-tetramethyl-5-oxo-2a,3,4,4a,5,6,9,10,11,12,12a, 12b-dodecahydro-1H-7,11-methanocyclodeca[3,4]benzo[1,2-b]oxet-12-yl benzoate]
- AUC % Extrapobs [1]: 6.48% and 3.06% and 5.26%
- AUCINF—obs [1]: 1390 ng·h/mL and 517 ng·h/mL and 1650 ng·h/mL
- Cmax [1]: 139 ng/mL and 84.7 ng/mL
- Tmax [1]: 2.00 h
- t1/2 [1]: 46.1 h
- AUC0-24 [2, 4]: 960 ng·h/mL
- Dose Normalized AUC [2, 4]: 48
- t1/2 γ [2, 4]: 2.2 h
- AUC0-24 [2, 5]: 920 ng·h/mL
- Dose Normalized AUC [2, 5]: 46
- AUC0-24 [2, 6]: 1260 ng·h/mL
- Cmax [2, 6]: 640 (450) ng/ml
- Dose Normalized AUC [2, 6]: 42
- t1/2 γ [2, 6]: 4.6 h
- AUC0-24 [2, 7]: 670 ng·h/mL
- Cmax [2, 7]: 420 ng/mL
- Dose Normalized AUC [2, 7]: 16.75
- t1/2 γ [2, 7]: 3.8 h
- AUC0-24 [2, 8]: 2190 ng·h/mL
- Dose Normalized AUC [2, 8]: 54.75
- AUC0-24 [2, 9]: 1420 ng·h/mL
- Cmax [2, 9]: 820 (380) ng/ml
- Dose Normalized AUC [2, 9]: 25.82
- t1/2 γ [2, 9]: 2 h
- AUC0-24 [2, 10]: 2560 ng·h/mL
- Dose Normalized AUC [2, 10]: 46.55
- AUC0-24 [2, 11]: 2790 ng·h/mL
- Cmax [2, 11]: 1910 (320) ng/ml
- Dose Normalized AUC [2, 11]: 39.86
- t1/2 γ [2, 11]: 2.5 h
- AUC0-24 [2, 12]: 3470 ng·h/mL
- Dose Normalized AUC [2, 12]: 49.57
- AUC0-24 [2, 13]: 4100 ng·h/mL
- Cmax [2, 13]: 2420 (920) ng/ml
- Dose Normalized AUC [2, 13]: 48.24
- t1/2 γ [2, 13]: 13.6 h
- AUC0-24 [2, 14]: 7810 ng·h/mL
- Dose Normalized AUC [2, 14]: 86.78
- AUC0-24 [2, 15]: 5930 ng·h/mL
- Cmax [2, 15]: 2410 (250) ng/ml
- Dose Normalized AUC [2, 15]: 59.30
- t1/2 γ [2, 15]: 18.5 h
- AUC0-24 [2, 16]: 5190 ng·h/mL
- Cmax [2, 16]: 2680 (930) ng/ml
- Dose Normalized AUC [2, 16]: 45.13
- t1/2 γ [2, 16]: 9.6 h
- target AUC [3]: 3410 ± 980 ng·h/mL
- AUC(0-inf) (clinical; in vivo, 35 mg/m2): 308 ng·h/mL
- half-life (clinical; in vivo, 150 mg/m2): 53.2 h
- Cmax (clinical; in vivo, 150 mg/m2, Cmax, oral 150 mg/m^2 with Compound A, individual subjects): 125 ng/mL
- half-life (clinical; in vivo, 225 mg/m2): 54.4 h
- Cmax (clinical; in vivo, 225 mg/m2, Cmax, oral 225 mg/m^2 with Compound A, individual subjects): 118 ng/mL
- AUC(0-t) (clinical; plasma, 35 mg/m2, AUC0-12, oral 35 mg/m^2 with Compound A, Mean, N=4): 184 ng·h/mL
- AUC(0-t) (clinical; plasma, 35 mg/m2, AUC0-24, oral 35 mg/m^2 with Compound A, Mean, N=4): 211 ng·h/mL
- AUC(0-t) (clinical; plasma, 35 mg/m2, AUC0-48, oral 35 mg/m^2 with Compound A, Mean, N=4): 240 ng·h/mL
- AUC(0-inf) (clinical; plasma, 35 mg/m2, AUCINF—obs, oral 35 mg/m^2 with Compound A, Mean, N=4): 296 ng·h/mL
- Cmax (clinical; plasma, 35 mg/m2, Cmax, oral 35 mg/m^2 with Compound A, Mean, N=4): 69.1 ng/mL
- Cmax (clinical; plasma, 35 mg/m2, Cmax, oral 35 mg/m^2 with Compound A, individual subjects): 38 to 157 ng/mL
- half-life (clinical; plasma, 35 mg/m2, t1/2, oral 35 mg/m^2 with Compound A, Mean, N=4): 27.6 h
- half-life (clinical; plasma, 35 mg/m2, t1/2, oral 35 mg/m^2 with Compound A, mean): 29.2 h
- concentration at 24 hr (clinical; plasma, 35 mg/m^2, Analyte Concentration, oral 35 mg/m^2, cohort 1, time 24.0 hr, individual subjects): 1.25 ng/mL
- AUC(0-t) (clinical; plasma, 75 mg/m2, AUC0-48, oral 75 mg/m^2 with Compound A, Mean, N=3): 675 ng·h/mL
- AUC(0-inf) (clinical; plasma, 75 mg/m2, AUCINF—obs, oral 75 mg/m^2 with Compound A, Mean, N=3): 815 ng·h/mL
- Cmax (clinical; plasma, 75 mg/m2, Cmax, oral 75 mg/m^2 with Compound A, Mean, N=3): 172 ng/mL
- half-life (clinical; plasma, 75 mg/m2, Reported half-life, oral 75 mg/m^2, individual values, sampling to 168 h, LLOQ 0.2 ng/mL): 51.4 h
- half-life (clinical; plasma, 75 mg/m2, t1/2, oral 75 mg/m^2 with Compound A, Mean, N=3): 53.1 h
- half-life (clinical; plasma, 75 mg/m2, t1/2, oral 75 mg/m^2 with Compound A, individual subjects): 51.4 h
- half-life (clinical; plasma, 75 mg/m2, t1/2, oral 75 mg/m^2 with Compound A, mean): 53.1 h
- concentration at 0.25 hr (clinical; plasma, 75 mg/m^2, Analyte Concentration, oral 75 mg/m^2, cohort 2, time 0.250 hr, individual subjects): 28 ng/mL
- Tmax (clinical; plasma, 150 mg/m2): 2.67 h
- AUC(0-t) (clinical; plasma, 150 mg/m2, AUC0-12, oral 150 mg/m^2 with Compound A, individual subjects): 446 ng·h/mL
- Cmax (clinical; plasma, 150 mg/m2, Cmax, oral 150 mg/m^2 with Compound A, individual subjects): 112 to 136 ng/mL
- half-life (clinical; plasma, 150 mg/m2, Reported half-life, oral 150 mg/m^2, individual values, sampling to 168 h, LLOQ 0.2 ng/mL): 72 h
- half-life (clinical; plasma, 150 mg/m2, t1/2, oral 150 mg/m^2 with Compound A, individual subjects): 72 h
- Tmax (clinical; plasma, 225 mg/m2): 0.5 h
- AUC(0-t) (clinical; plasma, 225 mg/m2, AUC0-24, oral 225 mg/m^2 with Compound A, Mean, N=3): 792 ng·h/mL
- AUC(0-t) (clinical; plasma, 225 mg/m2, AUC0-24, oral 225 mg/m^2 with Compound A, individual subjects): 986 ng·h/mL
- AUC(0-t) (clinical; plasma, 225 mg/m2, AUC0-48, oral 225 mg/m^2 with Compound A, Mean, N=3): 914 ng·h/mL
- AUC(0-inf) (clinical; plasma, 225 mg/m2, AUCINF—obs, oral 225 mg/m^2 with Compound A, Mean, N=3): 1190 ng·h/mL
- half-life (clinical; plasma, 225 mg/m2, t1/2, oral 225 mg/m^2 with Compound A, Mean, N=3): 56 h
- half-life (clinical; plasma, 225 mg/m2, t1/2, oral 225 mg/m^2 with Compound A, individual subjects): 67.3 h
- concentration at 1 hr (clinical; plasma, 225 mg/m^2, Analyte Concentration, oral 225 mg/m^2, cohort 4, time 1.00 hr, individual subjects): 55.6 ng/mL
- concentration at 2 hr (clinical; plasma, 225 mg/m^2, Analyte Concentration, oral 225 mg/m^2, cohort 4, time 2.00 hr, individual subjects): 118 ng/mL
- concentration at 4 hr (clinical; plasma, 225 mg/m^2, Analyte Concentration, oral 225 mg/m^2, cohort 4, time 4.00 hr, individual subjects): 28 ng/mL
